In US11214803B2, “Modulators of YAP1 expression” (Ionis Pharmaceuticals, Inc., priority 2019, dated 2022):
Marks after values point to notes of the source that are not given here. Strand notation (5' to 3'): a small letter for the sugar, then the base; units joined by * are phosphorothioate-linked, units joined directly phosphodiester-linked; [ ] holds rarer units or linkages, { } end groups; capitals alone tell only the bases. k = constrained ethyl (cEt); [5mC] = 5-methylcytosine; d = 2'-deoxy (DNA)

These substances were tested on Yap1 mRNA (assay: Antisense inhibition of human Yap1 in A-431 cells by cEt gapmers, single dose (Example 2, RTS4814)). Details: A-431 cells, 5,000 cells per well, free uptake, 2,000 nM modified oligonucleotide, approx. 48 hours, RTS4814, normalized to RIBOGREEN; Table 4; asterisk (*) = targets amplicon region of primer probe set.
Assay type: cell-based
Outline: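 Read-out is Yap1 mRNA as percent of untreated cells, by real-time RT-PCR (probe set RTS4814) normalized to total RNA via RIBOGREEN. Cells were A-431 dosed with 2,000 nM gapmer without transfection for approximately 48 hours.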

Substance	YAP1 (% UTC)
716511 (antisense kG*kA*kT*d[5mC]*dT*dT*d[5mC]*dT*dG*d[5mC]*dA*d[5mC]*dA*kT*kT*kA) [Compound 716511]	51 % UTC
716481 (kT*k[5mC]*kA*dG*d[5mC]*dA*dT*dA*dG*dA*dA*dG*dT*kA*kG*kG; antisense) [Compound 716481]	23 % UTC
716361 (kG*kG*kT*dT*dG*dA*dG*dG*d[5mC]*dG*dG*d[5mC]*dG*kG*k[5mC]*kT; antisense) [Compound 716361]	75 % UTC
716382 (kA*kG*k[5mC]*dA*dT*dG*dG*d[5mC]*d[5mC]*dT*dT*d[5mC]*d[5mC]*kT*kG*kG; antisense) [Compound 716382]	73 % UTC
716388 (kA*kG*kA*dG*dG*dT*dG*dG*dT*d[5mC]*dT*dT*dG*kT*kT*k[5mC]; antisense) [Compound 716388]	55 % UTC

Same assay, conditions: Table 5; A-431 cells, 5,000 cells per well, free uptake, 2,000 nM modified oligonucleotide, approx. 48 hours; RTS4814; normalized to RIBOGREEN; Yap1 mRNA relative to untreated control cells

Substance	YAP1 (% UTC)
716449 (kG*kG*kT*d[5mC]*dA*dT*dT*dT*dG*d[5mC]*d[5mC]*dT*dA*kG*kG*kT; antisense) [Compound 716449]	49 % UTC
716446 (kG*k[5mC]*kA*d[5mC]*dA*d[5mC]*d[5mC]*d[5mC]*dA*d[5mC]*dA*dA*dA*kA*kT*kT; antisense) [Compound 716446]	83 % UTC
716347 (kT*kG*k[5mC]*d[5mC]*dT*dT*dT*d[5mC]*d[5mC]*d[5mC]*d[5mC]*dG*d[5mC]*k[5mC]*kT*k[5mC]; antisense) [Compound 716347]	85 % UTC
716509 (antisense kT*kA*kT*dA*d[5mC]*d[5mC]*d[5mC]*dA*dA*dT*dT*dT*dT*kG*k[5mC]*kA) [Compound 716509]	70 % UTC

Same assay, conditions: Table 6; A-431 cells, 5,000 cells per well, free uptake, 2,000 nM modified oligonucleotide, approx. 48 hours; RTS4814; normalized to RIBOGREEN; Yap1 mRNA relative to untreated control cells

Substance	YAP1 (% UTC)
716387 (kT*kA*kT*dG*dG*dT*dT*dT*dA*dT*dA*dT*dA*kG*kT*kA; antisense) [Compound 716387]	33 % UTC
716555 (kT*kA*k[5mC]*dT*dT*dT*dT*dT*d[5mC]*dA*dA*dG*dA*kT*kA*k[5mC]; antisense) [Compound 716555]	99 % UTC
716477 (kG*kT*kG*dT*dT*d[5mC]*dA*dT*dT*dA*d[5mC]*dA*dA*kA*kT*kG; antisense) [Compound 716477]	42 % UTC
716483 (k[5mC]*kA*kA*dA*dA*d[5mC]*d[5mC]*dT*dT*dA*dT*dA*dG*kT*kA*kT; antisense) [Compound 716483]	159 % UTC

Same assay, conditions: Table 18; A-431 cells, 5,000 cells per well, free uptake, 2,000 nM modified oligonucleotide, approx. 48 hours; RTS4814; normalized to RIBOGREEN; Yap1 mRNA as percent of untreated control

Substance	YAP1 (% UTC)
1076484 (antisense kG*kA*kA*dA*d[5mC]*dG*dG*dG*dA*dA*dA*dT*d[5mC]*kA*kT*kA) [Compound 1076484]	10 % UTC
1075844 (kT*kA*kT*dT*dA*dA*dA*dT*dA*dA*dG*dA*dG*k[5mC]*kT*k[5mC]; antisense) [Compound 1075844]	84 % UTC
1074436 (k[5mC]*kA*kT*dG*dA*dA*dG*d[5mC]*dA*dT*d[5mC]*dT*dG*kA*k[5mC]*kT; antisense) [Compound 1074436]	31* % UTC

Same assay, conditions: Table 19; A-431 cells, 5,000 cells per well, free uptake, 2,000 nM modified oligonucleotide, approx. 48 hours; RTS4814; normalized to RIBOGREEN; Yap1 mRNA as percent of untreated control

Substance	YAP1 (% UTC)
1075749 (kA*kA*kT*dT*dA*dT*dG*dA*dA*dT*dG*dA*dT*kG*kG*kG; antisense) [Compound 1075749]	4 % UTC

Same assay, conditions: Table 20; Yap1 mRNA, percent of untreated control; 3-10-3 cEt gapmers targeting SEQ ID NO.: 1 and 2

Substance	YAP1 (% UTC)
1074982 (antisense kA*k[5mC]*k[5mC]*dT*dT*dT*dT*dA*dT*dT*dG*d[5mC]*d[5mC]*kA*kG*kT) [Compound 1074982]	13 % UTC
1074214 (antisense kT*k[5mC]*k[5mC]*dG*dG*d[5mC]*dG*dG*d[5mC]*dT*dT*dG*dA*kA*kG*kA) [Compound 1074214]	89 % UTC
1075910 (kG*kA*kA*dA*dT*dA*dA*dG*dG*dA*dG*dT*dA*kG*kG*kT; antisense) [Compound 1075910]	93 % UTC
1076230 (kG*kA*kA*dT*dT*dA*dA*d[5mC]*d[5mC]*dT*d[5mC]*dA*dG*kT*kG*kA; antisense) [Compound 1076230]	50 % UTC
1074470 (k[5mC]*k[5mC]*k[5mC]*d[5mC]*d[5mC]*d[5mC]*dA*d[5mC]*d[5mC]*dG*dA*d[5mC]*d[5mC]*k[5mC]*kT*kG; antisense) [Compound 1074470]	69 % UTC

Same assay, conditions: Table 21; Yap1 mRNA, percent of untreated control; 3-10-3 cEt gapmers targeting SEQ ID NO.: 1 and 2

Substance	YAP1 (% UTC)
1075911 (kT*kG*kA*d[5mC]*dA*dA*dA*dA*d[5mC]*dA*dG*dG*d[5mC]*kA*k[5mC]*k[5mC]; antisense) [Compound 1075911]	41 % UTC

Same assay, conditions: Table 22; Yap1 mRNA as percent of untreated control; 3-10-3 cEt gapmers; single dose

Substance	YAP1 (% UTC)
1076104 (kA*k[5mC]*kG*dA*dA*dA*dT*dA*dG*dT*dA*dA*d[5mC]*kT*kG*kT; antisense) [Compound 1076104]	24 % UTC
1074536 (antisense kA*kG*kT*dA*dA*dT*dA*dG*d[5mC]*dT*d[5mC]*dT*dT*kT*k[5mC]*kT) [Compound 1074536]	6 % UTC
1076168 (k[5mC]*kA*kA*dA*dT*dT*dT*dA*d[5mC]*dA*d[5mC]*d[5mC]*dA*k[5mC]*k[5mC]*kG; antisense) [Compound 1076168]	23 % UTC
1076296 (kT*kA*kT*dA*dA*dA*dG*dA*d[5mC]*d[5mC]*d[5mC]*dA*dA*kT*kG*k[5mC]; antisense) [Compound 1076296]	68 % UTC
1075688 (kG*kA*k[5mC]*dA*dA*dT*dA*dA*dA*d[5mC]*dA*dT*d[5mC]*kA*k[5mC]*k[5mC]; antisense) [Compound 1075688]	12 % UTC

Same assay, conditions: Table 23; Yap1 mRNA as percent of untreated control; 3-10-3 cEt gapmers; single dose

Substance	YAP1 (% UTC)
1075945 (kG*kT*kA*dT*dT*dA*dG*dG*dA*dA*d[5mC]*dA*dG*kA*kT*k[5mC]; antisense) [Compound 1075945]	11 % UTC
1074793 (kA*kA*kT*d[5mC]*dA*dA*dT*dG*dT*dG*d[5mC]*dT*d[5mC]*k[5mC]*kA*kT; antisense) [Compound 1074793]	9 % UTC
1074985 (antisense kA*kA*kT*d[5mC]*dA*d[5mC]*d[5mC]*dT*dT*dT*dT*dA*dT*kT*kG*k[5mC]) [Compound 1074985]	49 % UTC

Same assay, conditions: Table 24; Yap1 mRNA as percent of untreated control; 3-10-3 cEt gapmers targeting SEQ ID NO.: 1, and 2

Substance	YAP1 (% UTC)
1075754 (k[5mC]*kT*kT*dA*dA*dA*dT*dG*dG*d[5mC]*dA*d[5mC]*dA*kG*kT*kT; antisense) [Compound 1075754]	20 % UTC
1075306 (kT*kA*kA*dA*d[5mC]*dG*dA*dA*dA*d[5mC]*dA*d[5mC]*dG*kG*kG*kT; antisense) [Compound 1075306]	30 % UTC
1075050 (antisense kA*k[5mC]*k[5mC]*d[5mC]*dA*dA*d[5mC]*dG*dG*dT*d[5mC]*dA*dT*kG*kT*kT) [Compound 1075050]	94 % UTC
1074570 (antisense kA*kT*kG*dA*dA*d[5mC]*d[5mC]*dT*dA*d[5mC]*dT*d[5mC]*dA*k[5mC]*kT*kG) [Compound 1074570]	12 % UTC
1074602 (antisense kT*k[5mC]*k[5mC]*dA*dG*d[5mC]*dT*dA*dA*d[5mC]*dT*d[5mC]*dA*kA*kA*kA) [Compound 1074602]	24 % UTC
1075370 (k[5mC]*kT*kT*dA*d[5mC]*dG*dA*dA*dT*d[5mC]*dA*d[5mC]*dA*kT*kA*kT; antisense) [Compound 1075370]	32 % UTC

Same assay, conditions: Table 32; Yap1 mRNA, percent of untreated control; 3-10-3 cEt gapmers targeting SEQ ID NO.: 1, and 2

Substance	YAP1 (% UTC)
1076306 (k[5mC]*kT*kT*dT*dA*d[5mC]*dT*dA*d[5mC]*dT*dA*dA*dT*kA*kA*kG; antisense) [compound 1076306]	99 % UTC
1074514 (kA*kA*kG*dG*dA*dT*dA*d[5mC]*dA*dT*dT*d[5mC]*d[5mC]*kA*k[5mC]*kT; antisense) [compound 1074514]	25 % UTC

Same assay, conditions: Table 33; Yap1 mRNA, percent of untreated control; 3-10-3 cEt gapmers targeting SEQ ID NO.: 1, and 2

Substance	YAP1 (% UTC)
1075187 (kG*k[5mC]*k[5mC]*d[5mC]*dA*dA*dG*dG*dA*dG*dG*dA*dA*kA*kT*k[5mC]; antisense) [compound 1075187]	77 % UTC
1074963 (antisense kT*kA*kG*dG*d[5mC]*dA*dA*dG*d[5mC]*dA*dG*d[5mC]*dT*kA*kA*kA) [compound 1074963]	76 % UTC
1075219 (k[5mC]*k[5mC]*kT*dT*dA*dA*d[5mC]*dA*d[5mC]*dT*dG*dG*dT*kA*kA*kG; antisense) [compound 1075219]	117 % UTC

Same assay, conditions: Yap1 mRNA as percent of untreated control; A-431 cells; 3-10-3 cEt gapmers targeting SEQ ID NO.: 1, and 2; Table 30

Substance	YAP1 (% UTC)
1076336 (antisense k[5mC]*kA*kT*dT*dA*d[5mC]*d[5mC]*dA*d[5mC]*d[5mC]*dT*dA*dT*kA*kA*kG) [compound 1076336]	31 % UTC

Same assay, conditions: Yap1 mRNA as percent of untreated control; A-431 cells; 3-10-3 cEt gapmers targeting SEQ ID NO.: 1, and 2; Table 31

Substance	YAP1 (% UTC)
1075377 (antisense k[5mC]*kT*kA*dG*dA*dA*dA*dG*dG*dT*dT*dG*dG*k[5mC]*k[5mC]*k[5mC]) [compound 1075377]	108 % UTC
1074449 (k[5mC]*kT*kA*dA*dT*dG*dA*dT*dA*dG*d[5mC]*dA*d[5mC]*kT*kA*kG; antisense) [compound 1074449]	36 % UTC
